Our source for the Kd values is ChEMBL document CHEMBL3991601, “The target landscape of clinical kinase drugs” (Science, 2017).

SMILES strings stand for the structures. Where a name gives a salt, the structure may show the parent alone. Active and inactive are the calls of the source.

In assay [1] the target is T1, Beta-adrenergic receptor kinase 1 (Homo sapiens, UniProt P25098).
T1 sequence (P25098 whole entry): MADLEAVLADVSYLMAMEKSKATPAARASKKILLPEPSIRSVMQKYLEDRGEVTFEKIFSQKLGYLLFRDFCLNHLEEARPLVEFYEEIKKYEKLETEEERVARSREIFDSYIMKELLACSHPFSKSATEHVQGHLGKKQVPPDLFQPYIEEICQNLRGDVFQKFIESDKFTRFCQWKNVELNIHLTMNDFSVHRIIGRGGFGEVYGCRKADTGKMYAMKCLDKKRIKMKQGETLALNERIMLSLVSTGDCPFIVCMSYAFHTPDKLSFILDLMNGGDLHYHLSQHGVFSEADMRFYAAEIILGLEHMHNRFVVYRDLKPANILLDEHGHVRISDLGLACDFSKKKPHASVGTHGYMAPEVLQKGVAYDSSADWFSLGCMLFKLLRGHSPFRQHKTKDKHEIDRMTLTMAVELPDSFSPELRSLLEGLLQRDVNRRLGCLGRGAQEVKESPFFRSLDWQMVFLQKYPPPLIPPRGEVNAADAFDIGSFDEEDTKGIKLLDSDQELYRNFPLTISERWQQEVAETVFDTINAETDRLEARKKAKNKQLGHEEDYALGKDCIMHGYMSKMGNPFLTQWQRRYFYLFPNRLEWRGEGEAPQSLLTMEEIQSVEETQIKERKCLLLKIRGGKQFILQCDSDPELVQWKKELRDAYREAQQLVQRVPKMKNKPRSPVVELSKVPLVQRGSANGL

In assay [2] the target is T2, ATP-dependent RNA helicase DHX30 (Homo sapiens, UniProt Q7L2E3).
T2 sequence (Q7L2E3 whole entry): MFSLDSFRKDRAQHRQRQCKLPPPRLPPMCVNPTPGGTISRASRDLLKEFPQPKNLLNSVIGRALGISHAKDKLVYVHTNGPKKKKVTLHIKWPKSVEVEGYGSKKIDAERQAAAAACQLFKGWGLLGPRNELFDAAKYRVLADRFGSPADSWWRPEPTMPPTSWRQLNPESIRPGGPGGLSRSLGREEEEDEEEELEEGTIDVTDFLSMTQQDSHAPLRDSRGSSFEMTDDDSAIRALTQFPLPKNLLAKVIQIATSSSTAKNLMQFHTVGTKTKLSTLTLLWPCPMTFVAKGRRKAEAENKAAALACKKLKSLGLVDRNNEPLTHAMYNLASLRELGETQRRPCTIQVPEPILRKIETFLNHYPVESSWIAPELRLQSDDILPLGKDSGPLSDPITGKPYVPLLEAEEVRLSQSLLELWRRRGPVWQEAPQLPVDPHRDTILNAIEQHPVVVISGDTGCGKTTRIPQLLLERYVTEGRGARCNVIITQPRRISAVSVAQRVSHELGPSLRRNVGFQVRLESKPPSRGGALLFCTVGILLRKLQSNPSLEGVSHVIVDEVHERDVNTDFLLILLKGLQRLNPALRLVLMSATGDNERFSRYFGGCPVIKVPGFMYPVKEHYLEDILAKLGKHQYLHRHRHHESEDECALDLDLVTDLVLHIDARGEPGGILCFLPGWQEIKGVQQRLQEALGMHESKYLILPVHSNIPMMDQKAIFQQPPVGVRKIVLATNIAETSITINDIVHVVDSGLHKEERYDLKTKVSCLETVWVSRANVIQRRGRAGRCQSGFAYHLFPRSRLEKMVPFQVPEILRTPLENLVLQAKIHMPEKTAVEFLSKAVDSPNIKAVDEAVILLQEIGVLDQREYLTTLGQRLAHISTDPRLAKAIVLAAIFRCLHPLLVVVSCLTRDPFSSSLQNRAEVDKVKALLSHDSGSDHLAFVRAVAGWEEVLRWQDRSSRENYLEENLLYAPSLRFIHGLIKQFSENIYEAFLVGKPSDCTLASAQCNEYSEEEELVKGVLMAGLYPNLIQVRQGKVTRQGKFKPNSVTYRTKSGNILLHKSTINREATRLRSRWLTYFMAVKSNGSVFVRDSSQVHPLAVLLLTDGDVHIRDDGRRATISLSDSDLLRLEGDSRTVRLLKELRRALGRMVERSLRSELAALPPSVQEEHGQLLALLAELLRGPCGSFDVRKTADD

Assay [3] concerns the target Glycogen synthase kinase-3 alpha (Homo sapiens, UniProt P49840).
Assay [4] deals with Tyrosine-protein kinase Lck (Homo sapiens, UniProt P06239).
Chain of Tyrosine-protein kinase Lck (P06239 whole entry): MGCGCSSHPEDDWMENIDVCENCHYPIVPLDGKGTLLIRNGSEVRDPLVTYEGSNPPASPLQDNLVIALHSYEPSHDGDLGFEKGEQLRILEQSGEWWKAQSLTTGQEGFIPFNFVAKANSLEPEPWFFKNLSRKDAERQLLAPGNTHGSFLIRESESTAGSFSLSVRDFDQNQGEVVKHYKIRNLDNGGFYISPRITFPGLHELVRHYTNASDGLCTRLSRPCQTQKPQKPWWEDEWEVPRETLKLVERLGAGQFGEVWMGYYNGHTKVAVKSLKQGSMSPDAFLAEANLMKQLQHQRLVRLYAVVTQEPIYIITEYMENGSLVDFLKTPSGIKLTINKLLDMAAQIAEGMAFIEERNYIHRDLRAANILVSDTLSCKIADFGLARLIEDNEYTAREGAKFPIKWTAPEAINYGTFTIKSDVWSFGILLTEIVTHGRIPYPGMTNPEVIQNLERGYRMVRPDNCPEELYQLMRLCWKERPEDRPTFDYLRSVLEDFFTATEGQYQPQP
A further assay deals with Midasin (Homo sapiens, UniProt Q9NU22).
The target of assay [5] is Ribosomal protein S6 kinase alpha-3 (Homo sapiens, UniProt P51812).
Chain of Ribosomal protein S6 kinase alpha-3 (P51812 whole entry): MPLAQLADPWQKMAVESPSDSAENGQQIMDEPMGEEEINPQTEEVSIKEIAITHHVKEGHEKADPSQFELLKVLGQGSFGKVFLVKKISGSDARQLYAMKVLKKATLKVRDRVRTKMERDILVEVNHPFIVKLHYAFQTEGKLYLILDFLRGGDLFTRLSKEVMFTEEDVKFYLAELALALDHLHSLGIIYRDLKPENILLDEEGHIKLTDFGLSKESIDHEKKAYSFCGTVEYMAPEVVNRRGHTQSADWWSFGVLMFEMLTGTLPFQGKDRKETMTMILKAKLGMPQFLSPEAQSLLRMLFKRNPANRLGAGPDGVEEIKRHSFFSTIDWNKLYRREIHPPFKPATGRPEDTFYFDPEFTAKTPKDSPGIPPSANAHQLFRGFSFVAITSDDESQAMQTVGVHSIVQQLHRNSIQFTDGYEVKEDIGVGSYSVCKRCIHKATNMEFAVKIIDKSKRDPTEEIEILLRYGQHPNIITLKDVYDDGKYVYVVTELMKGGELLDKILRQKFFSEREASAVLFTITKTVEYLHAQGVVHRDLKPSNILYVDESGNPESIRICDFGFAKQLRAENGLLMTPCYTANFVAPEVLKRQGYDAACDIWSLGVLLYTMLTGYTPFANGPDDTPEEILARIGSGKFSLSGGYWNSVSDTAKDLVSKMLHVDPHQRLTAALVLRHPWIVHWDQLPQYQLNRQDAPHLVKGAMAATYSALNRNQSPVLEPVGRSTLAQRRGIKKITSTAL
The target of the next assay is T3, ADP/ATP translocase 2 (Homo sapiens, UniProt P05141).
T3 sequence (P05141 whole entry): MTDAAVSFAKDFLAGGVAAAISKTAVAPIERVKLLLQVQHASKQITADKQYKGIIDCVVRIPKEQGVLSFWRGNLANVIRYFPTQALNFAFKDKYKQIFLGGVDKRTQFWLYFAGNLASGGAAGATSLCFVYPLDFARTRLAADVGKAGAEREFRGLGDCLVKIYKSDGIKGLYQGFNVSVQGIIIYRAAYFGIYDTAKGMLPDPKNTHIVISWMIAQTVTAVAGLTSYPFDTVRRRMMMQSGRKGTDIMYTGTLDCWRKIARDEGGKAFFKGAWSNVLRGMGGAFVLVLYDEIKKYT
Note: in the data inactive means no Kd found up to 30 µM.

Chain of Glycogen synthase kinase-3 alpha (P49840 whole entry): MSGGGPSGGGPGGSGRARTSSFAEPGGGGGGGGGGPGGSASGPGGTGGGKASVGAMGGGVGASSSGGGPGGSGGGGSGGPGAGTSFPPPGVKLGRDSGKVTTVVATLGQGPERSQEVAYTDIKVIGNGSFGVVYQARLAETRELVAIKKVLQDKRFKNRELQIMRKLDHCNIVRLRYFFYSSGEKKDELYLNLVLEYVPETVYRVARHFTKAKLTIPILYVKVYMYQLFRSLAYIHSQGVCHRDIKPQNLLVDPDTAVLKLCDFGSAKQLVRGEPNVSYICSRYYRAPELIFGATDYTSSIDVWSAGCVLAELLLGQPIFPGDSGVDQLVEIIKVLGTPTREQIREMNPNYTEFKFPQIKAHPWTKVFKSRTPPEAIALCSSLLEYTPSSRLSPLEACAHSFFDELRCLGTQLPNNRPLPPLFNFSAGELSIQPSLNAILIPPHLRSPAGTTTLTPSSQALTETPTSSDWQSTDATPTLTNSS

For orientation: Kd means the constant that tells how readily two partners part at equilibrium. On to `COc1c(OCCCN2CCOCC2)ccc2c1N=C(NC(=O)c1cnc(N)nc1)N1CCN=C21` [COPANLISIB], for which the Kd (in assay [1]; in assay [2]; in assay [3]; in assay [4]; at Midasin; in assay [5]) was > 30 µM (inactive) in each case. The Kd at ADP/ATP translocase 2 was > 30 µM (inactive).
As to `COCC(=O)NC/C=C/c1ccc2ncnc(Nc3ccc(Oc4ccc(C)nc4)c(C)c3)c2c1` [CP-724714], the Kd (in assay [1]; in assay [2]; in assay [3]; in assay [4]; on Midasin; in assay [5]) was > 30 µM (inactive) each time. Besides, the Kd at ADP/ATP translocase 2 was > 30 µM (inactive).
Take `C#Cc1cccc(Nc2ncnc3cc(OC)c(OCCCCCCC(=O)NO)cc23)c1` [CUDC-101]: the Kd (in assay [1]; in assay [2]; in assay [3]; in assay [4]; at Midasin; in assay [5]) was > 30 µM (inactive) in each case. Moreover, on ADP/ATP translocase 2, the Kd is > 30 µM (inactive).
Regarding `CCS(=O)(=O)N1CCN(c2ccc(Nc3ncc(C(N)=O)c(NC4CC4)n3)cc2)CC1` [Cerdulatinib Hydrochloride], the Kd in assay [1] was > 30 µM (inactive); in assay [2], > 30 µM (inactive); in assay [3], > 30 µM (inactive); in assay [4], > 30 µM (inactive); at Midasin, > 30 µM (inactive); in assay [5] it was 5.89 µM (active). Besides, on ADP/ATP translocase 2, the Kd was > 30 µM (inactive).
Regarding `O=C(Nc1nc2cccc(-c3ccc(CN4CCS(=O)(=O)CC4)cc3)n2n1)C1CC1` [FILGOTINIB], the Kd (in assay [1]; in assay [2]; in assay [3]; in assay [4]; at Midasin; in assay [5]) was > 30 µM (inactive) each time. Moreover, at ADP/ATP translocase 2, the Kd is > 30 µM (inactive).
Regarding `Cc1cccc(-c2nn3c(c2-c2ccnc4ccc(C(N)=O)cc24)CCC3)n1` [GALUNISERTIB], the Kd (in assay [1]; in assay [2]; in assay [3]; in assay [4]; on Midasin; in assay [5]) was > 30 µM (inactive) throughout. Moreover, the Kd at ADP/ATP translocase 2 was > 30 µM (inactive).
`COc1ccc(S(=O)(=O)N(C(C)=O)c2ccccc2/C=C/c2cc[n+]([O-])cc2)cc1` [HMN-214]: the Kd (in assay [1]; in assay [2]; in assay [3]; in assay [4]; at Midasin; in assay [5]) was > 30 µM (inactive) throughout. Moreover, the Kd on ADP/ATP translocase 2 was > 30 µM (inactive).
With `CNC(=O)c1cccc2cc(Oc3ccnc4cc(OCC5(N)CC5)c(OC)cc34)ccc12` [LUCITANIB], the Kd (in assay [1]; in assay [2]; in assay [3]; in assay [4]; at Midasin; in assay [5]) was > 30 µM (inactive) throughout. At ADP/ATP translocase 2, the Kd was > 30 µM (inactive).
`NC1(c2ccc(-c3nc4ccn5c(=O)[nH]nc5c4cc3-c3ccccc3)cc2)CCC1` [MK-2206]: the Kd (in assay [1]; in assay [2]; in assay [3]; in assay [4]; at Midasin; in assay [5]) was > 30 µM (inactive) in each case. In addition, the Kd at ADP/ATP translocase 2 was > 30 µM (inactive).
With `CN(C[C@@H]1COCCO1)S(=O)(=O)Nc1ccc2ccc3ncc(-c4cnn(C)c4)cc3c(=O)c2c1` [MK-2461], the Kd (in assay [1]; in assay [2]; in assay [3]; in assay [4]; at Midasin; in assay [5]) was > 30 µM (inactive) in each case. Moreover, the Kd on ADP/ATP translocase 2 was > 30 µM (inactive).
On to `Cn1cc(-c2cnc3ccc4ccc(CS(=O)(=O)NCc5ccccn5)cc4c(=O)c3c2)cn1` [MK-8033], for which the Kd (in assay [1]; in assay [2]; in assay [3]; in assay [4]; on Midasin; in assay [5]) was > 30 µM (inactive) each time. Moreover, the Kd at ADP/ATP translocase 2 was > 30 µM (inactive).
For the molecule `Cc1nc(Nc2n[nH]c3c2CN(C(=O)N[C@H](CN(C)C)c2ccccc2)C3(C)C)c2sccc2n1` [PF-03758309], the Kd in assay [1] was 22.5 µM (active); in assay [2] it was > 30 µM (inactive); in assay [3] it was 2.09 µM (active); in assay [4] it was > 30 µM (inactive); on Midasin, > 30 µM (inactive); in assay [5], 0.1 µM (active). The Kd on ADP/ATP translocase 2 is > 30 µM (inactive).
In the case of `Cc1cnc(NC(=O)Nc2cc(Br)c(C)cc2OC[C@@H]2CNCCO2)cn1` [RABUSERTIB], the Kd (in assay [1]; in assay [2]; in assay [3]; in assay [4]; on Midasin; in assay [5]) was > 30 µM (inactive) each time. For the same molecule, the Kd at ADP/ATP translocase 2 is > 30 µM (inactive).
Take `CO[C@H]1C[C@@H]2CC[C@@H](C)[C@@](O)(O2)C(=O)C(=O)N2CCCC[C@H]2C(=O)O[C@H]([C@H](C)C[C@@H]2CC[C@@H](OP(C)(C)=O)[C@H](OC)C2)CC(=O)[C@H](C)/C=C(\C)[C@@H](O)[C@@H](OC)C(=O)[C@H](C)C[C@H](C)/C=C/C=C/C=C/1C` [RIDAFOROLIMUS]: the Kd (in assay [1]; in assay [2]; in assay [3]; in assay [4]; on Midasin; in assay [5]) was > 30 µM (inactive) throughout. Moreover, the Kd at ADP/ATP translocase 2 is > 30 µM (inactive).
For `N#CC1(c2ccc(NC(=O)c3cccnc3NCc3ccncc3)cc2)CCCC1` [RIVOCERANIB], the Kd (in assay [1]; in assay [2]; in assay [3]; in assay [4]; on Midasin; in assay [5]) was > 30 µM (inactive) throughout. The Kd at ADP/ATP translocase 2 was > 30 µM (inactive).
